Results published in the OligoGym collection.
Several values for one entry are separate records, joined by “and”; a condition that tells them apart may be missing. Equal values may be shown once. After the bases stand the sugars from the 5' end (letter, count) and the backbone: PS all phosphorothioate, else s phosphorothioate and o phosphodiester by linkage. Methylation of C is not given here. e = 2'-O-(2-methoxyethyl) (MOE); l = locked nucleic acid (LNA); k = constrained ethyl (cEt); d = 2'-deoxy (DNA)

Assays:
APOL1 = conditions: ASO
SNHG14 = conditions: ASO

Sequence: CTAATTTTCTGACTGT (sugars kkddddkekekddddd, PS)
- target mRNA inhibition (APOL1; A431, 2 µM): 83%

Sequence: CCACATTTGAGATTAT (sugars k4 d9 k3, PS)
- target mRNA inhibition (APOL1; A431, 0.0625 µM): 37%
- target mRNA inhibition (APOL1; A431, 0.25 µM): 72%
- target mRNA inhibition (APOL1; A431, 1 µM): 90%

Sequence: CATTCAGAATTTCCAC (sugars k3 d5 k3 d5, PS)
- target mRNA inhibition (APOL1; A431, 2 µM): 94%

Sequence: GCTAATTTTCTGACTG (sugars kkkddddkekeddddd, PS)
- target mRNA inhibition (APOL1; A431, 0.0156 µM): 10%
- target mRNA inhibition (APOL1; A431, 0.0625 µM): 42%
- target mRNA inhibition (APOL1; A431, 0.25 µM): 70%
- target mRNA inhibition (APOL1; A431, 1 µM): 87%
- target mRNA inhibition (APOL1; A431, 2 µM): 93%

Sequence: CTTTATACCAGTGTCT (sugars kkkddddkekeddddd, PS)
- target mRNA inhibition (APOL1; A431, 2 µM): 94%

Sequence: GTAAGTATTGCCAGCT (sugars kkddddekekeddddd, PS)
- target mRNA inhibition (APOL1; A431, 2 µM): 69%

Sequence: CTAATTTTCTGACTGT (sugars k3 d4 k3 e1 d5, PS)
- target mRNA inhibition (APOL1; A431, 0.0156 µM): 35%
- target mRNA inhibition (APOL1; A431, 0.04 µM): 59%
- target mRNA inhibition (APOL1; A431, 0.0625 µM): 69%
- target mRNA inhibition (APOL1; A431, 0.25 µM): 88%
- target mRNA inhibition (APOL1; A431, 1 µM): 99% and 96%
- target mRNA inhibition (APOL1; A431, 2 µM): 99%

Sequence: AGATTGGCTCAGTGAC (sugars k4 d9 k3, PS)
- target mRNA inhibition (APOL1; A431, 0.0625 µM): 44% and 27%
- target mRNA inhibition (APOL1; A431, 0.25 µM): 70% and 52%
- target mRNA inhibition (APOL1; A431, 1 µM): 87% and 76%

Sequence: CAGTTTTGTAAGTGCA (sugars kkddddkekekkdddd, PS)
- target mRNA inhibition (APOL1; A431, 2 µM): 18%

Sequence: GTTTTGTAAGTGCAAC (sugars kkddddkekekddddd, PS)
- target mRNA inhibition (APOL1; A431, 2 µM): 88%

Sequence: GTAAGTATTGCCAGCT (sugars kkddddkekekddddd, PS)
- target mRNA inhibition (APOL1; A431, 2 µM): 53%

Sequence: AGATTGGCTCTGGCTC (sugars kdddddkekekddddd, PS)
- target mRNA inhibition (APOL1; A431, 2 µM): 40%

Sequence: TGTTTAGGCATTCAGA (sugars k4 d9 k3, PS)
- target mRNA inhibition (APOL1; A431, 0.0625 µM): 59% and 37%
- target mRNA inhibition (APOL1; A431, 1 µM): 86% and 64%

Sequence: GCATTCAGAATTTCCA (sugars k2 d4 e3 k2 d5, PS)
- target mRNA inhibition (APOL1; A431, 0.0156 µM): 39%
- target mRNA inhibition (APOL1; A431, 0.0625 µM): 72%
- target mRNA inhibition (APOL1; A431, 0.25 µM): 91%
- target mRNA inhibition (APOL1; A431, 1 µM): 97%
- target mRNA inhibition (APOL1; A431, 2 µM): 98%

Sequence: TTATACCAGTGTCTTC (sugars kkddddkekekkdddd, PS)
- target mRNA inhibition (APOL1; A431, 2 µM): 68%

Sequence: CAGTTTTGTAAGTGCA (sugars k3 d4 k3 e1 d5, PS)
- target mRNA inhibition (APOL1; A431, 2 µM): 92%

Sequence: AGTCATTAGTGCTATA (sugars k4 d9 k3, PS)
- target mRNA inhibition (APOL1; A431, 0.0625 µM): 57%
- target mRNA inhibition (APOL1; A431, 0.25 µM): 78%
- target mRNA inhibition (APOL1; A431, 1 µM): 88%

Sequence: TGTCTTGCAAGGTTGT (sugars k4 d9 k3, PS)
- target mRNA inhibition (APOL1; A431, 0.0625 µM): 57%
- target mRNA inhibition (APOL1; A431, 0.25 µM): 73%
- target mRNA inhibition (APOL1; A431, 1 µM): 84%

Sequence: GAGTATTGTTTTTGTG (sugars kddddkekekeddddd, PS)
- target mRNA inhibition (APOL1; A431, 2 µM): 94%

Sequence: CTTGTTTTATGGAGTC (sugars k4 d9 k3, PS)
- target mRNA inhibition (APOL1; A431, 0.0625 µM): 85% and 91%
- target mRNA inhibition (APOL1; A431, 0.25 µM): 97%
- target mRNA inhibition (APOL1; A431, 1 µM): 99%

Sequence: AGTATTGTTTTTGTGG (sugars kkkddddkekekdddd, PS)
- target mRNA inhibition (APOL1; A431, 2 µM): 55%

Sequence: ACTCTCACTGTAACTTT (sugars l4 d11 l2, PS)
- target mRNA inhibition (SNHG14; Human Neuronal Cell, 0.2 µM): 21%
- target mRNA inhibition (SNHG14; Human Neuronal Cell, 1 µM): 35%

Sequence: ATATTGATTCAATTCCC (sugars l4 d7 l1 d3 l2, PS)
- target mRNA inhibition (SNHG14; Human Neuronal Cell, 7.5 µM): 67%

Sequence: TTATACCTTTCTTTAACCCT (sugars ldddldldddddddldddll, PS)
- target mRNA inhibition (SNHG14; Human Neuronal Cell, 7.5 µM): 62%

Sequence: TAAAATTATTTATACACCAT (sugars llldldldddddddlldlll, PS)
- target mRNA inhibition (SNHG14; Human Neuronal Cell, 7.5 µM): 21%

Sequence: TATTGATTCAATTCCCT (sugars l2 d2 l1 d10 l2, PS)
- target mRNA inhibition (SNHG14; Human Neuronal Cell, 7.5 µM): 55%

Sequence: AATTATTTATACACCATCAT (sugars ldlldddddddddddldlll, PS)
- target mRNA inhibition (SNHG14; Human Neuronal Cell, 7.5 µM): 62%

Sequence: ATACCTTTCTTTAACCC (sugars l4 d11 l2, PS)
- target mRNA inhibition (SNHG14; Human Neuronal Cell, 0.2 µM): 60%
- target mRNA inhibition (SNHG14; Human Neuronal Cell, 1 µM): 67%

Sequence: TACTCTGCAATACACC (sugars l2 d2 l1 d9 l2, PS)
- target mRNA inhibition (SNHG14; Human Neuronal Cell, 7.5 µM): 61%

Sequence: TTATAGCCATTCTATCT (sugars lddllddddddddldll, PS)
- target mRNA inhibition (SNHG14; Human Neuronal Cell, 7.5 µM): 62%

Sequence: TCACTGTTCTGACTTT (sugars l3 d10 l3, PS)
- target mRNA inhibition (SNHG14; Human Neuronal Cell, 0.2 µM): 19%
- target mRNA inhibition (SNHG14; Human Neuronal Cell, 1 µM): 18%
- target mRNA inhibition (SNHG14; Human Neuronal Cell, 5 µM): 28%

Sequence: TACACTTAATTATACTTC (sugars l2 d12 l4, PS)
- target mRNA inhibition (SNHG14; Human Neuronal Cell, 0.2 µM): 26%
- target mRNA inhibition (SNHG14; Human Neuronal Cell, 1 µM): 42%

Sequence: TTTACACTTAATTATACTTC (sugars l6 d7 l1 d4 l2, PS)
- target mRNA inhibition (SNHG14; Human Neuronal Cell, 7.5 µM): 58%

Sequence: TTTTATACCTTTCTTTAACC (sugars llldddddddddddldldll, PS)
- target mRNA inhibition (SNHG14; Human Neuronal Cell, 7.5 µM): 65%

Sequence: TGTTTCCATCTACTATTA (sugars lddddldddddddlddll, PS)
- target mRNA inhibition (SNHG14; Human Neuronal Cell, 7.5 µM): 62%

Sequence: TCATATTGAACCAATT (sugars l4 d10 l2, PS)
- target mRNA inhibition (SNHG14; Human Neuronal Cell, 0.2 µM): 59%
- target mRNA inhibition (SNHG14; Human Neuronal Cell, 1 µM): 71%

Sequence: TAAAATTATTTATACACCAT (sugars ldddlllddddddllldlll, PS)
- target mRNA inhibition (SNHG14; Human Neuronal Cell, 7.5 µM): 34%

Sequence: ACCAGCTACAGGAACCTC (sugars l3 d12 l3, PS)
- target mRNA inhibition (SNHG14; Human Neuronal Cell, 0.2 µM): -35%
- target mRNA inhibition (SNHG14; Human Neuronal Cell, 1 µM): -33%
- target mRNA inhibition (SNHG14; Human Neuronal Cell, 5 µM): -60%

Sequence: TACCTACATCTCATACT (sugars l2 d13 l2, PS)
- target mRNA inhibition (SNHG14; Human Neuronal Cell, 0.2 µM): -1%
- target mRNA inhibition (SNHG14; Human Neuronal Cell, 1 µM): 0%
- target mRNA inhibition (SNHG14; Human Neuronal Cell, 5 µM): 11%
- target mRNA inhibition (SNHG14; Mouse Primary Neuronal Cell, 0.005 µM): 78.6%
